Patent US6383479B1, “Neutrophil-activating factor” (Novartis AG, priority 1987, dated 2002)

Key:
[1] = tested on: New Zealand albino rabbits; test: neutrophil accumulation and plasma leakage in rabbit skin after intradermal injection; assay type: in vivo
Description: Inflammatory responses are examined in the skin of conscious 2.0 to 2.5 kg New Zealand albino rabbits. Erythrocytes in blood from donor rabbits are sedimented with hydroxyethyl cellulose (Polysciences, Warrington, Pa.) and neutrophils in the resultant leucocyte-rich plasma are purified (>94% neutrophils) by density gradient centrifugation on Percoll (Pharmacia, Uppsala, Sweden). Cells are resuspended in Ca^2+ and Mg^2+—free Tyrode's solution containing 10% platelet poor plasma to a concentration of 10^6 leukocytes/ml and labeled for 15 min at room temperature with 40 μCi ^111indium-oxine (Amersham) per 10^6 cells. The labeled cells are washed by centrifugation through 10% platelet-poor plasma and approximately 10^6 cells per recipient are mixed with 10 μCi ^125iodine-labeled human serum albumin (Amersham) and injected intravenously through the lateral ear vein of rabbits with inflammatory lesions under study. Intradermal injections of inflammatory agents are then made and animals are killed 2 h later in studies with actinomycin D and polymyxin B, and 4 h later in dose-response experiments. Midway through the period that radiolabeled cells are in circulation, a blood sample is collected and the specific activities of neutrophils and plasma in blood are determined. Radioactivity in inflammatory lesions at the end of each experiment are determined in a multichannel gamma counter, the activity in control skin sites is subtracted and the absolute number of neutrophils and volume of plasma accumulating in inflammatory lesions are calculated from the specific activities. Neutrophil numbers in inflammatory lesions are standardised between animals by expressing the results as cell number per 10^6 neutrophils circulating per ml peripheral blood, according to the method of Cybulsky et al., Am. J. Pathol. 124 [1986] 367.
Recombinant NAF obtained as described under Example 19 is dissolved at 400 μg/ml in minimal essential medium (50 mM) plus 0.45 M NaCl (pH 6.5). Endotoxin (E. coli serotype 055:B5, Sigma, St. Louis, Mo.) is dissolved in pyrogen-free normal saline. fMLP is dissolved in dimethyl sulphoxide at 10^−2 M and diluted to working concentrations in PFS. Polymyxin B and actinomycin D are dissolved in 1 ml ethanol and diluted 20 fold by mixing with NAF, endotoxin or fMLP in PFS. In studies on inhibition of inflammatory responses 40 μg polymyxin B and 10^−7 moles actinomycin D are injected per skin site with […] endotoxin. In all experiments 0.2 ml of inflammatory agents are injected intradermally per site through 26 gauge needles, with 5 replicates of each treatment in each animal.

[2] = tested on: human neutrophils; test: hydrogen peroxide formation by chemiluminescence in human neutrophils; assay type: cell-based
Procedure: b) H2O2-dependent chemiluminescence: the progress curves following stimulation with partially purified NAF and approximately equiactive concentrations of C5a and fMLP are shown on the left. The initial phase of the response is detailed on the right. The stimulants are added in 50 μl of PBS-BSA.
Lower graphs: respiratory burst induced by natural (left) and recombinant (right) NAF. Neutrophils (10^6 cells/ml) are stimulated with 3, 10 and 30 nM NAF at time zero and hydrogen peroxide production is measured by chemiluminescence (M. P. Wymann et al., Anal. Biochem. 165 [1987] 371-378).
The properties of NAF, fMLP and C5a as stimuli of the respiratory burst are compared by assessing the production of superoxide or hydrogen peroxide by the stimulated cells. Superoxide formation is determined as described in Example 13. Hydrogen peroxide formation is determined by chemiluminescence (M. P. Wymann et al., Anal. Biochem. 165 [1987] 371-378). The assay mixture consisting of PBS-BSA containing 0.1 M sodium azide, 0.01 mM luminol, 9 U/ml horseradish peroxidase and 10^6 neutrophils is preincubated for 10 min at 37° and the reaction is started by adding the stimulus via a microsyringe.

[3] = tested on: Rabbit neutrophils; test: NAF-induced exocytosis in rabbit neutrophils (N-acetyl-β-glucosaminidase release); assay type: cell-based; details: 15 min, cytochalasin B pretreated, purified natural NAF
Procedure: Rabbit neutrophils are isolated from peripheral blood (obtained from the ear vein or artery) by dextran sedimentation followed by Hypaque-Ficoll density gradient centrifugation. Purified natural NAF is used.
Exocytosis conditions: 0.6×10^6 cells (in a total volume of 0.15 ml) pretreated with cytochalasin B for 5 min at 37° are stimulated with NAF (0.1-100 nM) or fMLP (100 nM) for 15 min. N-acetyl-β-glucosaminidase, an azurophil granule marker, is determined in the cell-free medium.

[4] = exposure to fresh human serum, then activity (superoxide production); assay type: in vitro ADME; details: 15 minutes with fresh human serum
Procedure: C5A and NAF are incubated for 15 minutes with fresh human serum or with PBS and the activity of the preparations is determined (superoxide production).
Since C5a and NAF have similar effects on neutrophils, further experiments must be performed to discriminate entirely between the two. Samples of NAF and C5a are exposed to fresh human serum.

[5] = isoelectric point (chromatofocusing); assay type: physicochemical
Procedure: A sample of 4 ml of NAF partially purified by phosphocellulose chromatography (Example 4) is dialyzed against start buffer consisting of 25 mM ethanolamine-HCl, pH 9.4 and 0.1% polyethylene glycol 6000, and loaded onto a PBE 94 column (0.7×19 cm, Pharmacia) equilibrated with the same buffer. The column is then eluted with 200 ml of polybuffer 96-HCl (diluted 1:10 with water), pH 7.0, containing 0.1% polyethylene glycol 6000. 10-minute fractions are collected at a flow rate of 10-14 ml/h and assayed for NAF activity. Most of the activity elutes in the region of pH 8.5 to pH 8.8 (FIG. 9).

[6] = recombinant NAF intradermal, 10^−11 to 10^−9 moles per site, 4 h

neutrophil-activating factor [NAF]
molar potency relative to C5a and LTB ([1]; in vivo, rabbit skin): comparable | neutrophil accumulation in skin sites [1, 6]: dose-dependent increase | plasma leakage into skin sites [1, 6]: dose-dependent increase | time between stimulus addition and onset of H2O2 production [2]: about 2 sec | N-acetyl-β-glucosaminidase ([3]; stimulus 0.1 nM): 53 pmol/min | N-acetyl-β-glucosaminidase ([3]; stimulus 1.0 nM): 99 pmol/min | N-acetyl-β-glucosaminidase ([3]; stimulus 10.0 nM): 139 pmol/min | N-acetyl-β-glucosaminidase ([3]; stimulus 100.0 nM): 157 pmol/min | effect of serum treatment on activity [4]: does not affect | isoelectric point [5]: approximately 8.6
